Measured values: US20230295201A1 (Gilead Sciences, Inc., priority 2020, published 2023)
Like-named read-outs stand apart in the source and are kept apart here.

Key:
Format in all cases: cell-based
[1] = system: RSV strain A2; experiment: RSV HEp-2 EC50 (infectious cytopathic cell protection assay); conditions: HEp-2 cells, RSV A2, 4 days, read-out: RSV HEp-2 EC50
Summary of the method: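 Percent inhibition of RSV-induced cytopathic effect came from remaining cell viability (CellTiter-Glo luminescence) after 4 days at 37° C. Compounds in 3-fold serial dilutions were exposed to an infectious mix of titered A2 virus and HEp-2 cells at 50,000/ml, with 0% and 100% inhibition control standards.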

[2] = system: DENV2 replicon; experiment: DENV-2 Huh-7 Rep EC50 (replicon luminescence); conditions: read-out: DENV-2 Huh-7 Rep EC50
Summary of the method: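 EC50 derived from luminescence dose-response, normalised to DMSO-only 0% inhibition wells, after 1.5 h with EnduRen substrate. Compounds were first exposed for 48 h at 37° C to DENV2 replicon Huh-7 cells (5,000/well).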

[3] = system: RSV A2; experiment: RSV NHBE EC50 (RSV A2 antiviral assay in normal human bronchial epithelial cells); conditions: NHBE cells, RSV A2, 4 days, read-out: RSV NHBE EC50
[4] = system: HRV16; experiment: HRV16 HELA EC50 (cytopathic effect in H1-HeLa cells)
Summary of the method: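 Read-out is luminescent cell viability (CellTiter-Glo) after 96 h of infection at 33 °C, scaled between uninfected and infected-untreated wells. Before infection with titrated virus, compounds went onto H1-HeLa cells as triplicate 3-fold dilution series.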

[5] = human respiratory syncytial virus, HEp-2, 96 h
[6] = Dengue virus, DENV2, Huh-7, 48 h, Huh-7 replicon cells, 48 hours
[7] = human respiratory syncytial virus, NHBE, 96 h
[8] = 96 h, H1-HeLa cells, 33° C., read-out: HRV16 HELA EC50
[9] = human respiratory syncytial virus, 96 h
[10] = Dengue virus, DENV2, Huh-7, 48 h
[11] = H1-HeLa cells, 96 h, 33° C.; read-out: HRV16 HELA EC50

In the case of `CC(C)(CO)C(=O)OCCNP(=O)(OC[C@@]1(C#N)O[C@@H](c2ccc3c(N)ncnn23)[C@H](O)[C@@H]1O)Oc1ccccc1` (stereo partly drawn) [Example 126, 2-(((((2R,3S,4R,5S)-5-(4-aminopyrrolo[2,1-f][1,2,4]triazin-7-yl)-2-cyano-3,4-dihydroxytetrahydrofuran-2-yl)methoxy)(phenoxy)phosphoryl)amino)ethyl 3-hydroxy-2,2-dimethylpropanoate], the EC50 [1, 5] is reported as 6.56 µM, the EC50 [2, 6] is reported as > 50 µM and the EC50 [3, 7] is reported as 1790 nM. For the same compound, the EC50 [4, 8] was 27.9 µM.

In the case of `CC(C)[C@H](N)C(=O)OCCNP(=O)(OC[C@@]1(C#N)O[C@@H](c2ccc3c(N)ncnn23)[C@H](O)[C@@H]1O)Oc1ccccc1` (stereo partly drawn) [Example 131, (2S)-2-(((((2R,3S,4R,5S)-5-(4-aminopyrrolo[2,1-f][1,2,4]triazin-7-yl)-2-cyano-3,4-dihydroxytetrahydrofuran-2-yl)methoxy)(phenoxy)phosphoryl)amino)ethyl 2-amino-3-methylbutanoate], the EC50 [1, 5] is reported as 0.315 µM, the EC50 [2, 6] is reported as > 50 µM and the EC50 [3, 7] is reported as 636 nM. For the same compound, the EC50 [4, 8] was 1.81 µM.

For `CCC(CC)COC(=O)[C@H](CC1CC1)NP(=O)(OC[C@@]1(C#N)O[C@@H](c2ccc3c(N)ncnn23)[C@H](O)[C@@H]1O)Oc1ccccc1` (stereo partly drawn) [Example 132, (2S)-2-ethylbutyl 2-(((((2R,3S,4R,5S)-5-(4-aminopyrrolo[2,1-f][1,2,4]triazin-7-yl)-2-cyano-3,4-dihydroxytetrahydrofuran-2-yl)methoxy)(phenoxy)phosphoryl)amino)-3-cyclopropylpropanoate], the EC50 [1, 5] was 1.99 µM, the EC50 [2, 6] was 44.6 µM and the EC50 [3, 7] was 523 nM. It also gave an EC50 [4, 8] of 22.4 µM.

With `C[C@H](N)C(=O)OCCNP(=O)(OC[C@@]1(C#N)O[C@@H](c2ccc3c(N)ncnn23)[C@H](O)[C@@H]1O)Oc1ccccc1` (stereo partly drawn) [Example 133, 2-(((((2R,3S,4R,5S)-5-(4-aminopyrrolo[2,1-f][1,2,4]triazin-7-yl)-2-cyano-3,4-dihydroxytetrahydrofuran-2-yl)methoxy)(phenoxy)phosphoryl)amino)ethyl L-alaninate] the EC50 [1, 5] was 4.72 µM, the EC50 [2, 6] was > 50 µM and the EC50 [3, 7] was > 5000 nM. It also gave an EC50 [4, 8] of 16.5 µM.

Compound `C[C@H](NP(=O)(OC[C@@]1(C#N)O[C@@H](c2ccc3c(N)ncnn23)[C@H](O)[C@@H]1O)Oc1ccccc1)C(=O)OC1CCCCCC1` (stereo partly drawn) [Example 134, (2S)-cycloheptyl 2-(((((2R,3S,4R,5S)-5-(4-aminopyrrolo[2,1-f][1,2,4]triazin-7-yl)-2-cyano-3,4-dihydroxytetrahydrofuran-2-yl)methoxy)(phenoxy)phosphoryl)amino)propanoate] has an EC50 [1, 5] of 0.334 µM, an EC50 [2, 6] of 24.7 µM and an EC50 [3, 7] of 52 nM. The EC50 [4, 8] was 0.247 µM.

In the case of `CC(C)[C@H](NC(=O)OC(C)(C)C)C(=O)OCCNP(=O)(OC[C@@]1(C#N)O[C@@H](c2ccc3c(N)ncnn23)[C@H](O)[C@@H]1O)Oc1ccccc1` (stereo partly drawn) [Example 139, (2S)-2-(((((2R,3S,4R,5S)-5-(4-aminopyrrolo[2,1-f][1,2,4]triazin-7-yl)-2-cyano-3,4-dihydroxytetrahydrofuran-2-yl)methoxy)(phenoxy)phosphoryl)amino)ethyl 2-((tert-butoxycarbonyl)amino)-3-methylbutanoate], the EC50 [1, 5] is reported as 6.43 µM, the EC50 [2, 6] is reported as > 50 µM and the EC50 [3, 7] is reported as 103 nM. The EC50 [4, 8] was 28.3 µM.

For `C[C@@H](NP(=O)(OC[C@@]1(C#N)O[C@@H](c2ccc3c(N)ncnn23)[C@H](O)[C@@H]1O)Oc1ccccc1)C(=O)O[C@@H]1CCN(C(=O)OC(C)(C)C)C1` (stereo partly drawn) [Example 140, (3R)-tert-butyl 3-(((2R)-2-(((((2R,3S,4R,5S)-5-(4-aminopyrrolo[2,1-f][1,2,4]triazin-7-yl)-2-cyano-3,4-dihydroxytetrahydrofuran-2-yl)methoxy)(phenoxy)phosphoryl)amino)propanoyl)oxy)pyrrolidine-1-carboxylate], the EC50 [1, 5] was 8.89 µM, the EC50 [2, 6] was > 50 µM and the EC50 [3, 7] was > 5000 nM. The EC50 [4, 8] was 23.3 µM.

`CC1(C(=O)OCCNP(=O)(OC[C@@]2(C#N)O[C@@H](c3ccc4c(N)ncnn34)[C@H](O)[C@@H]2O)Oc2ccccc2)CC1` (stereo partly drawn) [Example 141, 2-(((((2R,3S,4R,5S)-5-(4-aminopyrrolo[2,1-f][1,2,4]triazin-7-yl)-2-cyano-3,4-dihydroxytetrahydrofuran-2-yl)methoxy)(phenoxy)phosphoryl)amino)ethyl 1-methylcyclopropane-1-carboxylate] was tested, and the EC50 [1, 5] was 2.01 µM, the EC50 [2, 6] was > 50 µM and the EC50 [3, 7] was 67 nM. For the same compound, the EC50 [4, 8] was 14.9 µM.

For `CC(=O)N1CC[C@@H](OC(=O)[C@H](C)NP(=O)(OC[C@@]2(C#N)O[C@@H](c3ccc4c(N)ncnn34)[C@H](O)[C@@H]2O)Oc2ccccc2)C1` (stereo partly drawn) [Example 146, (2S)—(R)-1-acetylpyrrolidin-3-yl 2-(((((2R,3S,4R,5S)-5-(4-aminopyrrolo[2,1-f][1,2,4]triazin-7-yl)-2-cyano-3,4-dihydroxytetrahydrofuran-2-yl)methoxy)(phenoxy)phosphoryl)amino)propanoate], the EC50 [1, 5] was 9.72 µM, the EC50 [2, 6] was > 50 µM and the EC50 [3, 7] was > 5000 nM. For the same compound, the EC50 [4, 8] was > 50 µM.

With `CCCCCCCCCCCCCCCCCCOCCOP(=O)(O)OC[C@@]1(C#N)O[C@@H](c2ccc3c(N)ncnn23)[C@H](O)[C@@H]1O` [Example 148, ((2R,3S,4R,5S)-5-(4-aminopyrrolo[2,1-f][1,2,4]triazin-7-yl)-2-cyano-3,4-dihydroxytetrahydrofuran-2-yl)methyl (2-(octadecyloxy)ethyl) hydrogen phosphate] the EC50 [1, 9] was 2.67 µM, the EC50 [2, 10] was > 50 µM and the EC50 [3, 9] was 320 nM. The EC50 [4, 11] was 36.9 µM.

With `C[C@H](NP(=O)(OC[C@@]1(C#N)O[C@@H](c2ccc3c(N)ncnn23)[C@H](O)[C@@H]1O)Oc1ccccc1)C(=O)OC1CCN(C)CC1` (stereo partly drawn) [Example 150] the EC50 [1, 5] was 4.16 µM, the EC50 [2, 6] was > 100 µM and the EC50 ([3]; human respiratory syncytial virus, NHBE, in Homo sapiens, 96 h) was > 5000 nM. It also gave an EC50 [4, 8] of 49.9 µM.

For `C[C@H](NP(=O)(OC[C@@]1(C#N)O[C@@H](c2ccc3c(N)ncnn23)[C@H](O)[C@@H]1O)Oc1ccccc1)C(=O)OC1CCOC(C)(C)C1` (stereo partly drawn) [Example 156, 2,2-dimethyltetrahydro-2H-pyran-4-yl ((((2R,3S,4R,5S)-5-(4-aminopyrrolo[2,1-f][1,2,4]triazin-7-yl)-2-cyano-3,4-dihydroxytetrahydrofuran-2-yl)methoxy)(phenoxy)phosphoryl)alaninate], the EC50 [1, 5] was 8.94 µM, the EC50 [2, 6] was > 100 µM and the EC50 [3, 7] was 1370 nM. It also gave an EC50 [4, 8] of 25.9 µM.

With `CC[C@H](N[P@@](=O)(OC[C@@]1(C#N)O[C@@H](c2ccc3c(N)ncnn23)[C@H](O)[C@@H]1O)Oc1ccccc1)C(=O)OCC(C)(C)C` [Example 158] the EC50 [1] was 0.969 µM, the EC50 ([2]; Huh-7 replicon cells, 48 hours) was > 50 µM and the EC50 [3] was 1270 nM. The EC50 [4, 11] was 13 µM.

With `CC[C@H](N[P@](=O)(OC[C@@]1(C#N)O[C@@H](c2ccc3c(N)ncnn23)[C@H](O)[C@@H]1O)Oc1ccccc1)C(=O)OCC(C)(C)C` [Example 159] the EC50 [1] was 0.22 µM, the EC50 ([2]; Huh-7 replicon cells, 48 hours) was > 50 µM and the EC50 [3] was 489 nM. The EC50 [4, 11] was 1.28 µM.

With `C[C@H](NP(=O)(OC[C@@]1(C#N)O[C@@H](c2ccc3c(N)ncnn23)[C@H](O)[C@@H]1O)Oc1ccccc1)C(=O)O[C@@H](C)C(N)=O` (stereo partly drawn) [Example 160] the EC50 [1] was 7.3 µM, the EC50 ([2]; Huh-7 replicon cells, 48 hours) was > 50 µM and the EC50 [3] was > 5000 nM. The EC50 [4, 11] was 29.1 µM.

In the case of `N#C[C@@]12COP(=O)(OC3CCCC3)O[C@H]1[C@@H](O)[C@H](c1ccc3c(N)ncnn13)O2` (stereo partly drawn) [Example 161, (4aR,6S,7S,7aS)-6-(4-aminopyrrolo[2,1-f][1,2,4]triazin-7-yl)-2-(cyclopentyloxy)-7-hydroxydihydro-4H-furo[3,2-d][1,3,2]dioxaphosphinine-4a(6H)-carbonitrile 2-oxide], the EC50 [1, 9] is reported as 6.48 µM, the EC50 [2, 10] is reported as > 50 µM and the EC50 [3, 9] is reported as 1490 nM. The EC50 [4, 11] was 13.8 µM.

`C[C@H](NP(=O)(OC[C@@]1(C#N)O[C@@H](c2ccc3c(N)ncnn23)[C@H](O)[C@@H]1O)Oc1ccccc1)C(=O)OCCN(C)C` (stereo partly drawn) [Example 162, 2-(dimethylamino)ethyl ((((2R,3S,4R,5S)-5-(4-aminopyrrolo[2,1-f][1,2,4]triazin-7-yl)-2-cyano-3,4-dihydroxytetrahydrofuran-2-yl)methoxy)(phenoxy)phosphoryl)-L-alaninate] was tested, and the EC50 [1, 5] was 6.05 µM, the EC50 [2, 6] was 13.8 µM and the EC50 [3, 7] was > 5000 nM. For the same compound, the EC50 [4, 8] was 12.8 µM.

`CC(C)OP1(=O)OC[C@@]2(C#N)O[C@@H](c3ccc4c(N)ncnn34)[C@H](O)[C@@H]2O1` (stereo partly drawn) [Example 163, (4aR,6S,7S,7aS)-6-(4-aminopyrrolo[2,1-f][1,2,4]triazin-7-yl)-7-hydroxy-2-isopropoxydihydro-4H-furo[3,2-d][1,3,2]dioxaphosphinine-4a(6H)-carbonitrile 2-oxide] was tested, and the EC50 [1, 9] was 13.3 µM, the EC50 [2, 10] was > 50 µM and the EC50 [3, 9] was 9210 nM. For the same compound, the EC50 [4, 11] was > 50 µM.
